Patent US8536332B2, “Modulating signal transduction pathways with substituted pyridol [2,3-b] pyrazines” (Aeterna Zentaris GmbH, priority 2007, dated 2013)

melting point [°C] | SMILES
261 to 264 | COc1ccc(-c2ccc3ncc(NC(=O)NC4CCCC4)nc3n2)cc1OC [Compound 576, 1-Cyclopentyl-3-[6-(3,4-dimethoxy-phenyl)-pyrido[2,3-b]pyrazin-3-yl]-urea]
254 to 257 | COc1ccc(-c2ccc3ncc(NC(=O)NCCc4ccccc4)nc3n2)cc1OC [Compound 577, 1-[6-(3,4-Dimethoxy-phenyl)-pyrido[2,3-b]pyrazin-3-yl]-3-phenethyl-urea]
263 to 266 | COc1ccc(-c2ccc3ncc(NC(=O)Nc4ccc(C)cc4)nc3n2)cc1OC [Compound 578, 1-[6-(3,4-Dimethoxy-phenyl)-pyrido[2,3-b]pyrazin-3-yl]-3-p-tolyl-urea]
279 to 283 | COc1ccc(-c2ccc3ncc(NC(=O)Nc4ccc(N5C(=O)C=CC5=O)cc4)nc3n2)cc1OC [Compound 579, 1-[6-(3,4-Dimethoxy-phenyl)-pyrido[2,3-b]pyrazin-3-yl]-3-[4-(2,5-dioxo-2,5-dihydro-pyrrol-1-yl)-phenyl]-urea]
248 to 251 | COc1ccc(-c2ccc3ncc(NC(=O)Nc4ccccc4)nc3n2)cc1OC [Compound 580, 1-[6-(3,4-Dimethoxy-phenyl)-pyrido[2,3-b]pyrazin-3-yl]-3-phenyl-urea]
239 to 242 | COc1ccc(-c2ccc3ncc(NC(=O)NC4CCN(C(=O)C(F)(F)F)CC4)nc3n2)cc1OC [Compound 581, 1-[6-(3,4-Dimethoxy-phenyl)-pyrido[2,3-b]pyrazin-3-yl]-3-[1-(2,2,2-trifluoro-acetyl)-piperidin-4-yl]-urea]
273 to 275 | Cc1cc(-c2ccc3ncc(NC(=O)Nc4ccc(N(C)C)cc4)nc3n2)cc(C)c1O [Compound 583]
247 to 250 | Cc1cc(-c2ccc3ncc(NC(=O)NC4CCCCC4)nc3n2)cc(C)c1O [Compound 584]
240 to 241 | CCNC(=O)Nc1cnc2ccc(-c3cc(C)c(OC)c(C)c3)nc2n1 [Compound 586, 1-Ethyl-3-[6-(4-methoxy-3,5-dimethyl-phenyl)-pyrido[2,3-b]pyrazin-3-yl]-urea]
210 to 212 | C=CCNC(=O)Nc1cnc2ccc(-c3cc(C)c(O)c(C)c3)nc2n1 [Compound 587, 1-Allyl-3-[6-(4-hydroxy-3,5-dimethyl-phenyl)-pyrido[2,3-b]pyrazin-3-yl]-urea]
267 to 269 | Cc1cc(-c2ccc3ncc(NC(=O)NCCc4ccccc4)nc3n2)cc(C)c1O [Compound 588, 1-[6-(4-Hydroxy-3,5-dimethyl-phenyl)-pyrido[2,3-b]pyrazin-3-yl]-3-phenethyl-urea]
251 to 253 | Cc1cc(-c2ccc3ncc(NC(=O)NC4CCN(C(=O)C(F)(F)F)CC4)nc3n2)cc(C)c1O [Compound 589]
242 to 244 | Cc1cc(-c2ccc3ncc(NC(=O)Nc4c(C)noc4C)nc3n2)cc(C)c1O [Compound 590, 1-(3,5-Dimethyl-isoxazol-4-yl)-3-[6-(4-hydroxy-3,5-dimethyl-phenyl)-pyrido[2,3-b]pyrazin-3-yl]-urea]
271 to 273 | Cc1cc(-c2ccc3ncc(NC(=O)Nc4ccccc4)nc3n2)cc(C)c1O [Compound 595, 1-[6-(4-Hydroxy-3,5-dimethyl-phenyl)-pyrido[2,3-b]pyrazin-3-yl]-3-phenyl-urea]
263 | CCNC(=O)Nc1cnc2ccc(-c3cc(C(C)(C)C)c(O)c(C(C)(C)C)c3)nc2n1 [Compound 596, 1-[6-(3,5-Di-tert-butyl-4-hydroxy-phenyl)-pyrido[2,3-b]pyrazin-3-yl]-3-ethyl-urea]
221 | CCNC(=O)Nc1cnc2ccc(-c3cc(C)c(OC(C)C)c(C)c3)nc2n1 [Compound 597, 1-Ethyl-3-[6-(4-isopropoxy-3,5-dimethyl-phenyl)-pyrido[2,3-b]pyrazin-3-yl]-urea]
232 | CCCOc1c(C)cc(-c2ccc3ncc(NC(=O)NCC)nc3n2)cc1C [Compound 598, 1-[6-(3,5-Dimethyl-4-propoxy-phenyl)-pyrido[2,3-b]pyrazin-3-yl]-3-ethyl-urea]
244 to 246 | COc1cc(-c2ccc3ncc(NC(=O)Nc4ccc(F)cc4)nc3n2)ccc1O [Compound 600, 1-(4-Fluoro-phenyl)-3-[6-(4-hydroxy-3-methoxy-phenyl)-pyrido[2,3-b]pyrazin-3-yl]-urea]
287 to 290 | COc1cc(-c2ccc3ncc(NC(=O)Nc4ccc(N(C)C)cc4)nc3n2)ccc1O [Compound 602, 1-(4-Dimethylamino-phenyl)-3-[6-(4-hydroxy-3-methoxy-phenyl)-pyrido[2,3-b]pyrazin-3-yl]-urea]
233 to 236 | COc1cc(-c2ccc3ncc(NC(=O)N[C@@H]4C[C@H]4c4ccccc4)nc3n2)ccc1O [Compound 603, 1-[6-(4-Hydroxy-3-methoxy-phenyl)-pyrido[2,3-b]pyrazin-3-yl]-3-((1R,2S)-2-phenyl-cyclopropyl)-urea]

melting point [°C] | SMILES
232 to 234 | COc1cc(-c2ccc3ncc(NC(=O)NC4CCCCCCC4)nc3n2)ccc1O [Compound 604, 1-Cyclooctyl-3-[6-(4-hydroxy-3-methoxy-phenyl)-pyrido[2,3-b]pyrazin-3-yl]-urea]
210 to 212 | COc1cc(-c2ccc3ncc(NC(=O)NC4CCN(C(=O)OCc5ccccc5)CC4)nc3n2)ccc1O [Compound 606, 4-{3-[6-(4-Hydroxy-3-methoxy-phenyl)-pyrido[2,3-b]pyrazin-3-yl]-ureido}-piperidine-1-carboxylic acid benzyl ester]
260 to 263 | COc1cc(-c2ccc3ncc(NC(=O)Nc4ccnc(N5CCOCC5)c4)nc3n2)ccc1O [Compound 607, 1-[6-(4-Hydroxy-3-methoxy-phenyl)-pyrido[2,3-b]pyrazin-3-yl]-3-(2-morpholin-4-yl-pyridin-4-yl)-urea]
257 to 259 | COc1cc(-c2ccc3ncc(NC(=O)Nc4ccc5sccc5c4)nc3n2)ccc1O [Compound 609]
245 to 248 | COc1cc(-c2ccc3ncc(NC(=O)Nc4cccnc4)nc3n2)ccc1O [Compound 611, 1-[6-(4-Hydroxy-3-methoxy-phenyl)-pyrido[2,3-b]pyrazin-3-yl]-3-pyridin-3-yl-urea]
272 to 273 | COc1cc(-c2ccc3ncc(NC(=O)NC4CCC(C)CC4)nc3n2)ccc1O (stereo not shown) [Compound 612, 1-[6-(4-Hydroxy-3-methoxy-phenyl)-pyrido[2,3-b]pyrazin-3-yl]-3-(4-methyl-cyclohexyl)-urea]
232 to 236 | COc1cc(-c2ccc3ncc(NC(=O)NC(C)(C)CC(C)(C)C)nc3n2)ccc1O [Compound 613, 1-[6-(4-Hydroxy-3-methoxy-phenyl)-pyrido[2,3-b]pyrazin-3-yl]-3-(1,1,3,3-tetramethyl-butyl)-urea]
247 to 250 | COc1cc(-c2ccc3ncc(NC(=O)Nc4ccc([N+](=O)[O-])cc4)nc3n2)ccc1O [Compound 616, 1-[6-(4-Hydroxy-3-methoxy-phenyl)-pyrido[2,3-b]pyrazin-3-yl]-3-(4-nitro-phenyl)-urea]
220 to 222 | COc1cc(-c2ccc3ncc(NC(=O)Nc4ccccc4[N+](=O)[O-])nc3n2)ccc1O [Compound 617, 1-[6-(4-Hydroxy-3-methoxy-phenyl)-pyrido[2,3-b]pyrazin-3-yl]-3-(2-nitro-phenyl)-urea]
274 to 276 | COc1cc(-c2ccc3ncc(NC(=O)Nc4cccc([N+](=O)[O-])c4)nc3n2)ccc1O [Compound 618, 1-[6-(4-Hydroxy-3-methoxy-phenyl)-pyrido[2,3-b]pyrazin-3-yl]-3-(3-nitro-phenyl)-urea]
214 to 217 | COc1cc(-c2ccc3ncc(NC(=O)Nc4cccc(-n5cccc5)c4)nc3n2)ccc1O [Compound 619, 1-[6-(4-Hydroxy-3-methoxy-phenyl)-pyrido[2,3-b]pyrazin-3-yl]-3-(3-pyrrol-1-yl-phenyl)-urea]
207 to 210 | COc1cc(-c2ccc3ncc(NC(=O)Nc4ccc(N5CCN(C)CC5)cc4)nc3n2)ccc1O [Compound 620, 1-[6-(4-Hydroxy-3-methoxy-phenyl)-pyrido[2,3-b]pyrazin-3-yl]-3-[4-(4-methyl-piperazin-1-yl)-phenyl]-urea]
248 to 251 | COc1cc(-c2ccc3ncc(NC(=O)Nc4cccc5c4ccn5C)nc3n2)ccc1O [Compound 621, 1-[6-(4-Hydroxy-3-methoxy-phenyl)-pyrido[2,3-b]pyrazin-3-yl]-3-(1-methyl-1H-indol-4-yl)-urea]
290 to 293 | COc1cc(-c2ccc3ncc(NC(=O)Nc4ccc(N5C(=O)C=CC5=O)cc4)nc3n2)ccc1O [Compound 622, 1-[4-(2,5-Dioxo-2,5-dihydro-pyrrol-1-yl)-phenyl]-3-[6-(4-hydroxy-3-methoxy-phenyl)-pyrido[2,3-b]pyrazin-3-yl]-urea]
263 to 265 | COc1cc(-c2ccc3ncc(NC(=O)Nc4ccc(-n5cccc5)cc4)nc3n2)ccc1O [Compound 623, 1-[6-(4-Hydroxy-3-methoxy-phenyl)-pyrido[2,3-b]pyrazin-3-yl]-3-(4-pyrrol-1-yl-phenyl)-urea]
242 to 245 | CCOc1ccc(NC(=O)Nc2cnc3ccc(-c4ccc(O)c(OC)c4)nc3n2)cc1 [Compound 624, 1-(4-Ethoxy-phenyl)-3-[6-(4-hydroxy-3-methoxy-phenyl)-pyrido[2,3-b]pyrazin-3-yl]-urea]
235 to 238 | COc1ccc(NC(=O)Nc2cnc3ccc(-c4ccc(O)c(OC)c4)nc3n2)cc1 [Compound 625, 1-(4-Methoxy-phenyl)-3-[6-(4-hydroxy-3-methoxy-phenyl)-pyrido[2,3-b]pyrazin-3-yl]-urea]
259 to 261 | COc1cc(-c2ccc3ncc(NC(=O)Nc4ccc(C#N)cc4)nc3n2)ccc1O [Compound 626, 1-(4-Cyano-phenyl)-3-[6-(4-hydroxy-3-methoxy-phenyl)-pyrido[2,3-b]pyrazin-3-yl]-urea]
234 to 235 | CCCCCCNC(=O)Nc1cnc2ccc(-c3ccc(O)c(OC)c3)nc2n1 [Compound 627, 1-Hexyl-3-[6-(4-hydroxy-3-methoxy-phenyl)-pyrido[2,3-b]pyrazin-3-yl]-urea]

SMILES | melting point [°C]
CCCCOc1c(C)cc(-c2ccc3ncc(NC(=O)NCC)nc3n2)cc1C [Compound 599, 1-[6-(4-Butoxy-3,5-dimethyl-phenyl)-pyrido[2,3-b]pyrazin-3-yl]-3-ethyl-urea] | 233
